Results as given in ChEMBL document CHEMBL3414534, “Water-soluble isoindolo[2,1-a]quinoxalin-6-imines: in vitro antiproliferative activity and molecular mechanism(s) of action” (Eur J Med Chem, 2015).
In brackets after ≈: the same amount, converted by molar mass. Several values for one entry are separate records, joined by “and”; a condition that tells them apart may be missing. Equal entries are not always repeated. Activity calls are given as the source filed them. No cut-off for these calls is given here.

Assays:
[1] = Binding affinity to double stranded DNA (unknown origin) assessed as change in melting temperature at 5 uM at pH 7.4 by fluorescence melting assay
[2] = species: Homo sapiens; assay: Binding affinity to human telomeric DNA sequence assessed as change in melting temperature at 5 uM at pH 7.4 by fluorescence melting assay
[3] = Binding affinity to Pu24 DNA (unknown origin) assessed as change in melting temperature at 5 uM at pH 7.4 by fluorescence melting assay
[4] = Solubility in water at 25 degC sonicated for 10 mins by HPLC method; assay type: physicochemical
[5] = Growth inhibition of human NCI60 cells; assay type: functional
[6] = test system: U2OS; assay: Induction of apoptosis in human U2OS cells assessed as increase in caspase-3 catalytic activity at cytotoxic IC50 level after 72 hrs; assay type: functional
[7] = molecular target: T1, Tubulin (Homo sapiens) (UniProt P68371+Q9H4B7+P0DPH7+P68366+Q13509+Q71U36+P04350+Q3ZCM7+P07437+P68363+Q9BQE3+Q6PEY2+Q13885+Q9BVA1+Q9BUF5); assay: Inhibition of tubulin polymerization in human U2OS cells at cytotoxic IC50 level after 72 hrs by Western blotting method; assay type: cell-based
[8] = molecular target: Cyclin-dependent kinase 1 (Homo sapiens, UniProt P06493); assay: Inhibition of CDC2 kinase (unknown origin) using histone H1 and [32P]-ATP
[9] = Inhibition of purified recombinant glutathione-S-transferase tagged cdc25 phosphatase (unknown origin) assessed as reduction in p-nitrophenylphosphate phosphatase activity by colorimetry; parameters: species or system Homo sapiens
[10] = molecular target: T1, Tubulin (Homo sapiens); assay: Induction of tubulin polymerization in human U2OS cells at cytotoxic IC50 level after 72 hrs by Western blotting method; assay type: cell-based
[11] = test system: Calf thymus DNA; assay: Binding affinity to calf thymus double stranded DNA assessed as induction of modification of dichroic signal by CD spectroscopy; assay type: nucleic-acid assay; conditions: Bos taurus
[12] = test system: U2OS; assay: Induction of telomere architecture perturbations in human U2OS cells assessed as displacement of hPOT1 from telomeres at cytotoxic IC50 level after 72 hrs by chromatin immunoprecipitation method; assay type: functional, cell-based
[13] = test system: U2OS; assay: Induction of cell cycle arrest in human U2OS cells assessed as accumulation at G2/M phase at cytotoxic IC50 level by propidium iodide staining based based cytofluorimetry; assay type: functional; conditions: TDE = time-dependent effect
[14] = test system: U2OS; assay: Induction of cell cycle arrest in human U2OS cells assessed as increase in accumulation at subG1 phase at cytotoxic IC50 level by propidium iodide staining based based cytofluorimetry; assay type: functional; conditions: TDE = time-dependent effect
[15] = molecular target: T2, DNA topoisomerase 1 (Homo sapiens) (UniProt P11387); assay: Inhibition of human recombinant topoisomerase 1-dependent DNA cleavage using 751-bp BamHI-EcoRI fragment of SV40 DNA at 1 to 50 uM incubated for 30 mins by PAGE method
T2 sequence (whole entry): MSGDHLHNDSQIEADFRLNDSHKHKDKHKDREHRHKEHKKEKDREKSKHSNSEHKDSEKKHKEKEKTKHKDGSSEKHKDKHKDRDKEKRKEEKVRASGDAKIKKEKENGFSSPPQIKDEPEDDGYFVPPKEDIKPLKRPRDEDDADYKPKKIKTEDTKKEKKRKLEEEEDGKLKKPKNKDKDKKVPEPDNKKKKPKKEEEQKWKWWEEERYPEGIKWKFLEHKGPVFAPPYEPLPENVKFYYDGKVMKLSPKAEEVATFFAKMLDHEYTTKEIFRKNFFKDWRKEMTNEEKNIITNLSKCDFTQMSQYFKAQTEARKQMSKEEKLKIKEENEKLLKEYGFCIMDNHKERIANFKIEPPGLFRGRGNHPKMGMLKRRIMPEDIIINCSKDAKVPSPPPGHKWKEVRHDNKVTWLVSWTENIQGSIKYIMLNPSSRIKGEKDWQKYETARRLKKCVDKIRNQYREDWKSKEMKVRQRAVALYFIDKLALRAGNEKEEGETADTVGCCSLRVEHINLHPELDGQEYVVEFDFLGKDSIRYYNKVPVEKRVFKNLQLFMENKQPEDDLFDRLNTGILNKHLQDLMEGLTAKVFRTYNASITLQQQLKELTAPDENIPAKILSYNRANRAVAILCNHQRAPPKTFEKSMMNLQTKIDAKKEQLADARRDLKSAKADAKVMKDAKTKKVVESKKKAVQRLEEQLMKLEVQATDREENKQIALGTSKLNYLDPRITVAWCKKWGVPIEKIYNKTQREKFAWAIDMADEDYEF

[16] = test system: U2OS; assay: Induction of telomere architecture perturbations in human U2OS cells assessed as displacement of human DNA topoisomerase 1 from telomeres at cytotoxic IC50 level after 24 hrs by chromatin immunoprecipitation method; assay type: functional
[17] = test system: U2OS; assay: Growth inhibition of human U2OS cells after 72 hrs by coulter counter method; assay type: functional, cell-based
[18] = test system: U2OS; assay: Induction of telomere architecture perturbations in human U2OS cells assessed as displacement of TRF2 from telomeres at cytotoxic IC50 level after 24 hrs by chromatin immunoprecipitation method; assay type: functional

Cyclin-dependent kinase 1, sequence (P06493 whole entry): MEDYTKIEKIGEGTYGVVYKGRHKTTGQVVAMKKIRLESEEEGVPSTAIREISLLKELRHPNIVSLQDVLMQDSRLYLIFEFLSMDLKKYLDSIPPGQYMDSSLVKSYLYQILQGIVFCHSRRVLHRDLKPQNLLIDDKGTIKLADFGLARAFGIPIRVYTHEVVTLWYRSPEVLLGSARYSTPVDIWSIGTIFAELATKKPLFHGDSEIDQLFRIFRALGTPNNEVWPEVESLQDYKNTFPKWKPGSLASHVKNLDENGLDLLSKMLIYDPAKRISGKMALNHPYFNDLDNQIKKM

| SMILES | ΔTm [1] | ΔTm [2] | ΔTm [3] | solubility at 10 min [4] | GI50 ([5]; Homo sapiens, NCI60) | other results |
| --- | --- | --- | --- | --- | --- | --- |
| Cc1cc2cn3c4ccc(O)cc4[nH]c(=N)c3c2cc1C [listing 1 of 2 here] | 0.2 °C and 0.1 °C | 3.6 °C and 2.5 °C | 1.9 °C and 1.1 °C | – | – | – |
| COc1ccc2c(c1)[nH]c(=N)c1c3ccccc3cn21 | 0.2 °C | 1.4 °C | 2 °C | – | – | – |
| COc1ccc(OC)c2c1[nH]c(=N)c1c3ccccc3cn21 | 0.3 °C and 0.7 °C | 4.3 °C and 4.4 °C | 2.6 °C and 2.2 °C | 12.7 mM (≈ 3730 µg/mL) | 2.29 µM | – |
| COc1ccc2c(c1)[nH]c(=N)c1c3cc(OC)c(OC)cc3cn21 | 0 °C and 0.1 °C | 5 °C and 3.1 °C | 4.1 °C and 2.4 °C | – | – | – |
| COc1ccc2[nH]c(=N)c3c4ccccc4cn3c2c1 | 0.1 °C and 0 °C | 1.5 °C and 2 °C | 1.1 °C and 2.3 °C | 13.8 mM (≈ 3630 µg/mL) | 1.55 µM | – |
| Cc1cc2cn3c4ccc(O)cc4[nH]c(=N)c3c2cc1C [listing 2 of 2 here] | – | – | – | 14.1 mM (≈ 3910 µg/mL) | – | GI50 [5]: < 1.45 µM |
| CC(=O)O.Cc1cc2cn3c4ccc(O)cc4[nH]c(=N)c3c2cc1C | – | – | – | 9.8 mM | – | GI50 [5]: < 5.25 µM |
| CCC1=C[C@@H]2CN(C1)Cc1c([nH]c3ccccc13)[C@@](C(=O)OC)(c1cc3c(cc1OC)N(C)[C@H]1[C@@](O)(C(=O)OC)[C@H](OC(C)=O)[C@]4(CC)C=CCN5CC[C@]31[C@@H]54)C2 | – | – | – | – | – | Activity [6]: Active; tubulin polymerization inhibition (active/inactive) [7]: Active |
| COc1ccc2c(c1)[nH]c(=N)c1c3cc(C)c(C)cc3cn21 | 0.1 °C and 0 °C | 2.6 °C and 1.4 °C | 2.1 °C | 7.8 mM (≈ 2270 µg/mL) | < 3.8 µM | – |
| COc1ccc2c(c1)cn1c3ccc(O)cc3[nH]c(=N)c21 | 0.1 °C and 0.7 °C | 4.4 °C and 4.3 °C | 1.9 °C and 2.9 °C | – | – | – |
| O=C(Cn1c2ccc(Br)cc2c2nc3ccccc3nc21)NNC(=S)NC1CCCCC1 | – | – | – | – | – | IC50 [8]: 70 µM; IC50 [9]: 25 µM |
| COc1ccc2c(c1)[nH]c(=O)c1c3ccccc3cn21 | – | – | – | 3.4 mM (≈ 899 µg/mL) | – | – |
| N=c1[nH]c2ccccc2n2cc3ccccc3c12 | 0.3 °C | 1.1 °C | 1.5 °C | – | – | – |
| CC(=O)O[C@H]1C(=O)[C@@]2(C)[C@H]([C@H](OC(=O)c3ccccc3)[C@]3(O)C[C@H](OC(=O)[C@H](O)[C@@H](NC(=O)c4ccccc4)c4ccccc4)C(C)=C1C3(C)C)[C@]1(OC(C)=O)CO[C@@H]1C[C@@H]2O | – | – | – | – | – | Activity [6]: Active; Activity [10]: Active |
| COc1ccc2c(c1)cn1c3ccc(OC)cc3[nH]c(=N)c21 | 0 °C | 1.2 °C | 1.1 °C | 13 mM (≈ 3810 µg/mL) | < 1.2 µM | Activity [11]: inactive; Activity [12]: inactive; fold change (FC) [6]: 13; Activity [13]: tde; Activity [14]: tde; inhibition of DNA cleavage (qualitative) [15]: Dose-dependent effect; inhibition (INH) [16]: 57%; growth inhibition (GI) [17]: Active; Activity [18]: -67%; tubulin polymerization inhibition (active/inactive) [7]: Active |
| COc1ccc2c(c1)[nH]c(=N)c1c3cc(OC)ccc3cn21 | – | – | – | 13.2 mM (≈ 3870 µg/mL) | < 1.05 µM | – |
